Values quoted from earlier work, collected in patent US20030105165A1, “Gap junctions and EDHF” (priority 2001, published 2003).

System: rabbit arteries
Details: endothelium-, gap junction- and cAMP-dependent; cited from earlier work

CCCCC/C=C\C/C=C\C/C=C\CC1OC1CCCC(=O)O (stereo not shown) [5,6-EET]
Relaxation of rabbit arteries by EET regioisomers: evokes relaxations
